{"source": "patent US20250332212A1", "about": "“METHOD FOR TREATING OR PREVENTING ALOPECIA” (Suzhou Mingren Pharmaceutical Biotechnology Co., Ltd., priority 2024, published 2025)", "key": {"SRD5A2": {"tested_on": "SRD5A2", "experiment": "qPCR of SRD5A2 mRNA in skin tissue of model mice", "assay_type": "in vivo, mouse", "conditions": "model II, P>0.05", "description": "(§1) 6.1) Sample preparation: 15-20 mg of mouse skin tissue was placed in a 1.5 mL centrifuge tube, and 600 μL of pre-cooled lysate was quickly added, and homogenized with an electric homogenizer. The homogenate obtained was blown gently 10 times, left at room temperature for 3-5 min, then centrifuged at 14,000×g for 5 min, and the supernatant was transferred to a new centrifuge tube with a pipette gun of suitable volume.\n(§2) 6.10) Reverse transcribe the RNA into cDNA according to the instructions of the reverse transcription kit, and then carry out subsequent experiments or store at −20° C. for later use.\n(§3) 7.1) Dilute the specific gene amplification primers to 10 µM in ddH2O, prepare the qPCR reaction system according to the instructions in the kit and add them sequentially into a 384-well plate.\n(§4) 7.3) Relative mRNA expression levels of genes were calculated by the […] relative quantification method using GAPDH as an internal reference."}, "AR, FOXD3, and FOXI1": {"tested_on": "AR, FOXD3, and FOXI1", "experiment": "qPCR of other predicted SP1 transcription factors in skin tissue", "assay_type": "in vivo, mouse", "conditions": "P>0.05", "description": "Four transcription factors that can bind to the SP1 promoter region were obtained by taking the intersection of the predicted data: E2F1, AR, FOXD3, and FOXI1 (FIG. 13A).\nas §3, §4"}, "β-catenin": {"tested_on": "β-catenin", "experiment": "β-catenin expression in skin tissue (qPCR, immunoblotting, immunofluorescence)", "assay_type": "in vivo, mouse", "description": "4.1) Protein extraction: 70 mg of skin tissue was placed in a 1.5 mL centrifuge tube, and 500 μL of tissue lysate RIPA containing protease inhibitor and phosphatase inhibitor was added. The tissue was placed on an ice box, pulverized by a tissue grinder, and then ultrasonically crushed to obtain a tissue suspension, which was then placed in a rotary windmill at 4° C. to be lysed for 2 h. The centrifuge was set at 12,000×g, 4° C., centrifuged for 15 min, and the supernatant was collected as the total protein.\n5.1) Heating of protein samples: the total protein content of each tissue was 50 μg; calculate the volume of a corresponding protein sample, make up the volume with saline to 16 μL, then add 4 μL of 5×SDS sampling buffer, heat at 100° C. for 5 min, and then cool at room temperature and store at −20° C.\n5.7) Primary antibody incubation: the cut protein bands were placed into the corresponding primary antibody and incubated at 4° C. on a shaker overnight, washed with TBST 3 times for 10 min/time.\nas §3, §4\n9.5) Primary antibody incubation: the tissue was circled by the histochemical pen, about 50 μL of primary antibody was added dropwise to the tissue, and incubated in a wet box overnight at 4° C., washed 3 times with PBS."}, "[1]": {"tested_on": "TP-induced AGA model mice", "experiment": "TP-induced AGA model, Animal model III (specific inhibition of SP1 by MTA)", "assay_type": "in vivo, C57BL/6J male mice", "text": "To verify that JP1 promotes AGA follicle regeneration through the activation of the Wnt/β-catenin signaling pathway via the MAPK/E2F1/SP1 signaling axis, the example constructed a mouse model of AGA with specific inhibition of SP1 (FIG. 15A). The specific experimental details are described according to “Animal model III” of “1. TP-induced AGA model” in “Experimental Methods”.\nTo further confirm that JP1 promotes the growth of hair follicles on the back of AGA model mice through the SP1-regulated Wnt/β-catenin signaling pathway at the histomorphometric level, H&E staining was performed on the skin tissues of the model mice of Example 15 at different time points (days 4, 8, and 12 post-intervention).\n(§5) The mice used in this study were 5-week-old C57BL/6J male mice (18-20 g), which were purchased from Jiangsu Jicui Pharmachem Biotechnology Co. All the animals used in the experiments were housed in the SPF-level environment of the Medical Laboratory Animal Center of Nanjing Medical University, and the relevant animal experimental operations were approved by the Animal Ethics Committee of Nanjing Medical University. The control group was left untreated, and the other groups were injected with TP subcutaneously on their backs every day. Two weeks later, the hair on the backs of the mice was shaved with an electric razor, covering an area of 2 cm×4 cm, and then the residual hair was removed with a hair removal cream. The subcutaneous injections of TP on the shaved backs of the mice in the AGA model was continued until the end of the experimental period, and the administration of TP in each of the treatment groups was begun on the 1st day of the dehairing process.\nIn addition to the normal control group (denoted as control) n=20, all mice injected subcutaneously with TP were randomly divided into the following groups (n=20): the model group (denoted as model), the 1% JP1 (skin-coated), and the 1% JP1+MTA group. […] MTA was administered at a dose of 0.3 mg/kg/d, qd, intraperitoneally, 100 μL/dose.\n(§6) Mice were weighed every two days during the experiment. Skin color was assessed against skin score charts. The mice were euthanized and treated at the end of the experiment, and skin tissues were taken from the dorsal decorticated area of the mice. Some of the tissues were fixed with 4% paraformaldehyde solution and then paraffin sections were made for H&E or immunofluorescence staining, etc., and some of the tissues were stored in the refrigerator at −80° C. for relevant molecular expression assays (qRT-PCR, Western Blot, IP, etc.).\n(§7) 8.1) Sampling and fixation: After the experiment, skin tissue was taken from the depilated area on the back of the mouse and placed in a 10 mL EP tube. 4% paraformaldehyde was added to the EP tube, and all tissues were immersed to denature and coagulate the proteins of the skin tissue. The original morphology and structure of the cells were maintained.\n(§8) 8.6) H&E staining: the sections pretreated in distilled water were put into aqueous hematoxylin solution for a few minutes for staining. The color was separated in acid water and ammonia for a few seconds each. After rinsing in running water for 1 h, the sections were placed in distilled water for a few moments. The sections were dehydrated in 70% and 90% alcohol for 10 min each, and stained in alcoholic eosin stain for 2-3 min."}, "[2]": {"tested_on": "TP-induced AGA model mice", "experiment": "TP-induced AGA model, Animal model I (JP1 intraperitoneal or topical skin-coating)", "assay_type": "in vivo, C57BL/6J male mice", "text": "C57BL/6 mice were selected for modeling in this example according to the first design scheme (FIG. 1A). For more details, see “Animal model I” of “1. TP-induced AGA model” in “Experimental Methods” below.\nas §5\nIn addition to the normal control group (denoted as control) n=3, all mice injected subcutaneously with TP were randomly divided into the following groups (n=3): the model group (denoted as model), the 1 wt. % JP1 and 2% JP1 (intraperitoneal), the 1% JP1 and 2% JP1 (topical skin-coating, denoted as apply), the 5% minoxidil group, and the 2% JP1 (intraperitoneal) combined with 5% minoxidil group. The mice were administered continuously for 35 days, euthanized.\nas §6, §7, §8"}, "AR": {"tested_on": "AR", "experiment": "qPCR of AR mRNA in skin tissue of model mice", "assay_type": "in vivo, mouse", "conditions": "model II, P>0.05", "description": "as §1, §2, §3, §4"}, "[3]": {"conditions": "1% JP1 skin-coated, MTA 0.3 mg/kg/d intraperitoneally"}, "[4]": {"conditions": "H&E longitudinal section, each JP1 treatment group vs model and solvent groups"}}, "note": "Square brackets hold non-standard residues; d marks the D form. Ends that are not written are not given here. pS = N[C@@H](COP(=O)(O)O)C(=O)O", "data": [{"substance": "FPGSDRF-RGD (FPG[pS]DRFRGD) [JP1, amino acid S is phosphorylated; JWA peptide]", "values": [{"measurement": "SRD5A2 mRNA level, difference between groups", "setting": "SRD5A2", "value": "no statistically significant difference"}, {"measurement": "mRNA expression of other molecules (predicted SP1 transcription factors)", "setting": "AR, FOXD3, and FOXI1", "value": "did not change significantly"}, {"measurement": "β-catenin immunohistofluorescence staining", "setting": "β-catenin", "value": "trend consistent with the results of protein immunoblotting experiments"}, {"measurement": "β-catenin protein expression", "setting": "β-catenin; protein immunoblotting, dose-effect relationship for JP1", "value": "increased"}, {"measurement": "β-catenin mRNA expression vs model group", "setting": "β-catenin; qPCR", "value": "increased"}, {"measurement": "skin color on the back, day 8", "setting": "[1]; [3]", "value": "turned gray"}, {"measurement": "skin color on the back, day 10", "setting": "[1]; [3]", "value": "changed significantly to black-gray"}, {"measurement": "hair follicle morphology at day 8 vs 1% JP1+MTA group", "setting": "[1]; H&E longitudinal section, 1% JP1", "value": "hair follicles extended downward and the bulbous part of hairs expanded"}, {"measurement": "diameter of the hair bulb", "setting": "[1]; H&E, day 12, 1% JP1 P<0.001", "value": "increased"}, {"measurement": "thickness of the dermis", "setting": "[1]; H&E, day 12, 1% JP1 P<0.001", "value": "increased"}, {"measurement": "total number of hair follicles vs model group and 1% JP1+MTA group", "setting": "[1]; skin transection, day 8 and day 12, P<0.001", "value": "significantly more"}, {"measurement": "hair growth index (skin color score) vs model group", "setting": "[2]; 1% JP1, intraperitoneal injection, P>0.05", "value": "statistically not significant"}, {"measurement": "hair growth index (skin color score) vs solvent group (vehicle (apply))", "setting": "[2]; 2% JP1 (apply), topical skin coating", "value": "higher than that of the solvent group"}, {"measurement": "hair growth index (skin color score) vs model group", "setting": "[2]; 2% JP1 (apply), topical skin coating, P<0.05", "value": "higher than that of the model group"}, {"measurement": "hair growth index (skin color score) vs model group", "setting": "[2]; 2% JP1, intraperitoneal injection, P<0.001", "value": "significantly higher than that of the model group"}, {"measurement": "hair growth (skin appearance on the back)", "setting": "[2]; AGA mice, JP1 injected intraperitoneally or applied to the skin", "value": "promoted hair growth"}, {"measurement": "dermal layer thickness", "setting": "[2]; [4]", "value": "increased dermal layer thickness"}, {"measurement": "hair follicle length", "setting": "[2]; [4]", "value": "longer hair follicle length"}, {"measurement": "difference in body weight gain between groups", "setting": "[2]; during mouse modeling, P>0.05", "value": "not statistically significant"}, {"measurement": "effect on hair follicle cycle relative to minoxidil", "setting": "[2]; skin of AGA model mice", "value": "comparable to the effect of minoxidil"}, {"measurement": "hair follicle cycle (resting phase / anagen phase)", "setting": "[2]; skin of AGA model mice", "value": "shorten the resting phase of the hair follicle"}, {"measurement": "AR mRNA level, difference between groups", "setting": "AR", "value": "no statistically significant difference"}]}]}
